In patent US20100311748A1, “HETEROCYCLIC AMIDES USEFUL FOR THE TREATMENT OF CANCER AND PSORIASIS” (ASTRAZENECA AB, priority 2007, published 2010):

These molecules were tested on Hedgehog pathway (assay: Hedgehog Pathway Cellular Differentiation Assay (alkaline phosphatase production in C3H10T1/2 cells with Shh ligand)). Details: Mus musculus, C3H 10T1/2, 3 μM compound, Shh ligand conditioned media, 72 h, alkaline phosphatase.
Type: cell-based
Method: Hedgehog Pathway Cellular Differentiation Assay The ability of compounds of the invention to inhibit the Hedgehog pathway can be determined by the following cell differentiation assay. C3H10T1/2 cells were plated into 384 well plates at a concentration of 5000 cells/well in DMEM/10% FBS. The following day the media was changed to 20% conditioned media (low serum media DMEM/2% FBS+Shh ligand). Compounds were solubilized in 100% DMSO to a concentration of 10 mM and then serially diluted three fold in 100% DMSO. The highest concentration in the cell plate was 30 μM and the lowest was 3 nM. The compounds were then added to the cells. Cell plates were incubated with the compound for 72 h and then assayed for alkaline phosphatase production using pNp as a substrate. Briefly, after 72 h of incubation, the media was aspirated from the cells and washed with 30 μl of PBS. PBS was aspirated off the cells and 15 μl of 1×RIPA cell lysis buffer is added on to the cells. The cell plates are then incubated at −80° C. for 30 minutes to insure proper cell lysis. The plates were then thawed back to RT. The substrate solution containing pNp at 1 mg/mL in diethanolamine buffer pH 9.8 was then added onto the lysed cells. The plates were incubated at 30° C. for color development and read at an absorbance of 405 nm. The percent inhibition and IC50 value was then calculated from the absorbance data using standard procedures.

First: Cc1cn(C)c(-c2ccc(C)c(NC(=O)c3ccc(OCc4cccc(OCCN5CCOCC5)c4)cc3)c2)n1 [Example 66, N-[5-(1,4-dimethyl-1H-imidazol-2-yl)-2-methylphenyl]-4-{[3-(2-morpholin-4-ylethoxy)benzyl]oxy}benzamide]
Second: COc1cc(COc2ccc(C(=O)Nc3cc(-c4nc(C)cn4C)ccc3C)cc2)cc(OC)c1 [Example 42, 4-[(3,5-dimethoxyphenyl)methoxy]-N-[5-(1,4-dimethylimidazol-2-yl)-2-methyl-phenyl]benzamide]
The inhibition at 3 µM of the first is lower: 69.6% for the first, 79.4% for the second.

First: Cc1ccc(-c2ncc[nH]2)cc1NC(=O)c1ccc(OCc2ccccc2)cc1 [Example 58, N-(5-(1H-imidazol-2-yl)-2-methylphenyl)-4-(benzyloxy)benzamide]
Second: Cc1ccc(-c2ncc[nH]2)cc1NC(=O)c1ccc(OCc2ccc(CO)cc2)cc1 [Example 62, 4-{[4-(hydroxymethyl)benzyl]oxy}-N-[5-(1H-imidazol-2-yl)-2-methylphenyl]benzamide]
The inhibition at 3 µM of the first is higher: 86.2% for the first, 76.9% for the second.

Compared with `Cc1ccc(-c2ncc[nH]2)cc1NC(=O)c1ccc(OCC2CCCCN2)cc1` (stereo not drawn) [Example 142, N-(5-(1H-imidazol-2-yl)-2-methylphenyl)-4-(piperidin-2-ylmethoxy)benzamide], `Cc1ccc(-c2ncc[nH]2)cc1NC(=O)c1ccc(OCc2ncccc2N2CCOCC2)cc1` [Example 137, N-(5-(1H-imidazol-2-yl)-2-methylphenyl)-4-((3-morpholinopyridin-2-yl)methoxy)benzamide] is higher in inhibition at 3 µM: 31.3% for the first, 76.5% for the second.

Compared with `Cc1ccc(-c2cnc(C)n2C)cc1NC(=O)c1ccc(OCc2ccccc2C#N)cc1` [Example 55, 4-[(2-cyanophenyl)methoxy]-N-[5-(2,3-dimethylimidazol-4-yl)-2-methyl-phenyl]benzamide], `Cc1ccc(-c2cn(C)cn2)cc1NC(=O)c1ccc(OCc2ccccc2C#N)cc1` [Example 53, 4-[(2-cyanophenyl)methoxy]-N-[2-methyl-5-(1-methylimidazol-4-yl)phenyl]benzamide] is lower in inhibition at 3 µM: 84.3% for the first, 80.4% for the second.

Compared with `Cc1nnc(-c2ccc(C)c(NC(=O)c3ccc(OCc4ccccn4)cc3)c2)o1` [Example 38, N-(2-methyl-5-(5-methyl-1,3,4-oxadiazol-2-yl)phenyl)-4-(pyridin-2-ylmethoxy)benzamide], `Cc1nc(-c2ccc(C)c(NC(=O)c3ccc(OCc4ccccn4)cc3)c2)no1` [Example 40, N-(2-methyl-5-(5-methyl-1,2,4-oxadiazol-3-yl)phenyl)-4-(pyridin-2-ylmethoxy)benzamide] is lower in inhibition at 3 µM: 24.2% for the first, 6.5% for the second.

Compared with `CCOc1ccnc(COc2ccc(C(=O)Nc3cc(-c4nccn4C)ccc3C)cc2)c1` [Example 97, 4-[(4-ethoxypyridin-2-yl)methoxy]-N-[2-methyl-5-(1-methyl-1H-imidazol-2-yl)phenyl]benzamide], `Cc1ccc(-c2nccn2C)cc1NC(=O)c1ccc(OCc2cc(OCC3CC3)ccn2)cc1` [Example 98, 4-{[4-(cyclopropylmethoxy)pyridin-2-yl]methoxy}-N-[2-methyl-5-(1-methyl-1H-imidazol-2-yl)phenyl]benzamide] is lower in inhibition at 3 µM: 81.9% for the first, 78.4% for the second.

Compared with `Cc1ccc(-c2ncc[nH]2)cc1NC(=O)c1ccc(/C=C/c2ccccn2)cc1` [Example 109, N-[5-(1H-imidazol-2-yl)-2-methylphenyl]-4-[(E)-2-pyridin-2-ylethenyl]benzamide], `Cc1ccc(-c2ncc[nH]2)cc1NC(=O)c1ccc(C#Cc2ccccn2)cc1` [Example 107, N-[5-(1H-imidazol-2-yl)-2-methylphenyl]-4-(pyridin-2-ylethynyl)benzamide] is higher in inhibition at 3 µM: 91.3% for the first, 92.3% for the second.

Compared with `Cc1ccc(-c2ncc[nH]2)cc1NC(=O)c1ccc(C(F)(F)F)nc1C` [Example 147, N-[5-(1H-imidazol-2-yl)-2-methyl-phenyl]-2-methyl-6-(trifluoromethyl)pyridine-3-carboxamide], `Cc1ccc(-c2ncc[nH]2)cc1NC(=O)c1ccc(OCc2cccc(N(C)C)n2)cc1` [Example 125, N-(5-(1H-imidazol-2-yl)-2-methylphenyl)-4-((6-(dimethylamino)pyridin-2-yl)methoxy)benzamide] is higher in inhibition at 3 µM: 19.3% for the first, 76.7% for the second.

Going from `Cc1ccc(-c2nccn2C)cc1NC(=O)c1ccc(OCc2cc(Oc3ccccc3)ccn2)cc1` [Example 96, N-[2-methyl-5-(1-methyl-1H-imidazol-2-yl)phenyl]-4-[(4-phenoxypyridin-2-yl)methoxy]benzamide] to `Cc1ccc(-c2ccccc2)cc1NC(=O)c1ccc(OCc2ccccn2)cc1` [Example 65, N-(2-methyl-5-phenyl-phenyl)-4-(pyridin-2-ylmethoxy)benzamide], the inhibition at 3 µM falls from 79.8% to 50%.

First: O=C(Nc1cc(-c2ncc[nH]2)ccc1Cl)c1ccc(OCc2ccccn2)cc1 [Example 105, N-[2-chloro-5-(1H-imidazol-2-yl)phenyl]-4-(pyridin-2-ylmethoxy)benzamide]
Second: Cc1cc(Cl)c(-c2ncc[nH]2)cc1NC(=O)c1ccc(OCc2ccccn2)cc1 [Example 76, N-[4-chloro-5-(1H-imidazol-2-yl)-2-methylphenyl]-4-(pyridin-2-ylmethoxy)benzamide]
The inhibition at 3 µM of the first is higher: 82.1% for the first, 77.6% for the second.

Going from `Cc1ccc(-c2nccn2Cc2ncccc2Br)cc1NC(=O)c1ccc(OCc2ncccc2Br)cc1` [Example 121, 4-[(3-bromopyridin-2-yl)methoxy]-N-(5-{1-[(3-bromopyridin-2-yl)methyl]-1H-imidazol-2-yl}-2-methylphenyl)benzamide] to `Cc1ccc(-c2cnc(N)cn2)cc1NC(=O)c1ccc(OCc2ccccn2)cc1` [Example 10, N-[5-(5-aminopyrazin-2-yl)-2-methyl-phenyl]-4-(pyridin-2-ylmethoxy)benzamide], the inhibition at 3 µM falls from 77.8% to 63.5%.

Going from `Cc1ccc(-c2ncc[nH]2)cc1NC(=O)c1ccc(OCc2cccc(N3CCN(C)CC3)n2)cc1` [Example 128, N-(5-(1H-imidazol-2-yl)-2-methylphenyl)-4-((6-(4-methylpiperazin-1-yl)pyridin-2-yl)methoxy)benzamide] to `Cc1ccc(-c2ncc[nH]2)cc1NC(=O)c1ccc(OCc2ccc(S(C)(=O)=O)cc2)cc1` [Example 60, N-[5-(1H-imidazol-2-yl)-2-methylphenyl]-4-{[4-(methylsulfonyl)benzyl]oxy}benzamide], the inhibition at 3 µM falls from 81.5% to 79.7%.

First: CNCc1c(-c2ccc(C)c(NC(=O)c3ccc(OCc4ccccn4)cc3)c2)ncn1C [Example 80, N-(2-methyl-5-{1-methyl-5-[(methylamino)methyl]-1H-imidazol-4-yl}phenyl)-4-(pyridin-2-ylmethoxy)benzamide]
Second: CCc1c[nH]c(-c2ccc(C)c(NC(=O)c3ccc(OCc4ccccn4)cc3)c2)n1 [Example 85, N-[5-(4-ethyl-1H-imidazol-2-yl)-2-methylphenyl]-4-(pyridin-2-ylmethoxy)benzamide]
The inhibition at 3 µM of the first is lower: 57.1% for the first, 78.8% for the second.

Compared with `Cc1ccc(-c2cnn(CC(C)C)c2)cc1NC(=O)c1ccc(OCc2ccccn2)cc1` [Example 36, N-[2-methyl-5-[1-(2-methylpropyl)pyrazol-4-yl]phenyl]-4-(pyridin-2-ylmethoxy)benzamide], `Cc1ccc(-c2c[nH]nn2)cc1NC(=O)c1ccc(OCc2ccccn2)cc1` [Example 114, N-(2-methyl-5-(1H-1,2,3-triazol-4-yl)phenyl)-4-(pyridin-2-ylmethoxy)benzamide] is higher in inhibition at 3 µM: 26.9% for the first, 73.2% for the second.

Compared with `Cc1ccc(-c2ccc(N)nn2)cc1NC(=O)c1ccc(OCc2ccccn2)cc1` [Example 15, N-[5-(6-aminopyridazin-3-yl)-2-methyl-phenyl]-4-(pyridin-2-ylmethoxy)benzamide], `Cc1ccc(-c2ncnc3nc[nH]c23)cc1NC(=O)c1ccc(OCc2ccccn2)cc1` [Example 18, N-[2-methyl-5-(7H-purin-6-yl)phenyl]-4-(pyridin-2-ylmethoxy)benzamide] is lower in inhibition at 3 µM: 80.7% for the first, 48.4% for the second.

`Cc1cc(C)c(-c2ncc[nH]2)cc1NC(=O)c1ccc(OCc2ccccn2)cc1` [Example 67, N-[5-(1H-imidazol-2-yl)-2,4-dimethylphenyl]-4-(pyridin-2-ylmethoxy)benzamide] and `Cc1ccc(-c2ncc[nH]2)cc1NC(=O)c1ccc(OCc2cc(OCCO)ccn2)cc1` [Example 132, N-(5-(1H-imidazol-2-yl)-2-methylphenyl)-4-((4-(2-hydroxyethoxy)pyridin-2-yl)methoxy)benzamide] are the same in inhibition at 3 µM: 77.1% for the first, 77.1% for the second.

Compared with `Cc1cc(-c2nc3ccccc3[nH]2)ccc1NC(=O)c1ccc(OCc2ccccn2)cc1` [Example 31, N-[4-(1H-benzoimidazol-2-yl)-2-methyl-phenyl]-4-(pyridin-2-ylmethoxy)benzamide], `O=C(Nc1cc(-c2nc3ccccc3[nH]2)ccc1Cl)c1ccc(OCc2ccccn2)cc1` [Example 106, N-[5-(1H-benzimidazol-2-yl)-2-chlorophenyl]-4-(pyridin-2-ylmethoxy)benzamide] is higher in inhibition at 3 µM: 27.9% for the first, 81.6% for the second.

Work on `COc1ccnc(COc2ccc(C(=O)Nc3cc(-c4ncc[nH]4)ccc3C)cc2)c1OC` [Example 56, 4-[(3,4-dimethoxypyridin-2-yl)methoxy]-N-[5-(1H-imidazol-2-yl)-2-methylphenyl]benzamide] yielded an inhibition at 3 µM of 67.4%.

Same assay, conditions: Mus musculus, C3H 10T1/2, Shh ligand conditioned media, 72 h, alkaline phosphatase (pNp, 405 nm)

With `Cc1ccc(-c2ncnc3nc[nH]c23)cc1NC(=O)c1ccc(OCc2ccccn2)cc1` [Example 18, N-[2-methyl-5-(7H-purin-6-yl)phenyl]-4-(pyridin-2-ylmethoxy)benzamide] the IC50 was 30 nM.
